In patent US10556920B2, “Phosphorus-containing heterocycles and a method for making and using” (University of Oregon, priority 2015, dated 2020):

Tests used:
Format in all cases: physicochemical
[1] = Fluorescence excitation/emission
Source text: ^1H and ^13C NMR spectra were obtained on a Varian 300 MHz spectrometer (^1H: […], ^13C: […]), Inova 500 MHz spectrometer (^1H: 500.10 MHz, ^13C: 125.75 MHz) or Varian 600 MHz spectrometer (^1H: 599.98 MHz, ^13C: 150.87 MHz). Chemical shifts (6) are expressed in ppm using non-deuterated solvent present in the bulk deuterated solvent (CDCl3: ^1H 7.26 ppm, ^13C 77.16 ppm; (CD3)2SO: ^1H 2.5 ppm, ^13C 39.52 ppm). Solvents and reagents were used as purchased from suppliers, unless anhydrous conditions were employed, in which solvents were freshly distilled from sodium/benzophenone under N2 atmosphere (THF) or as purchased in sealed, DriSolv containers (pyridine). Triphenylphosphite was freshly distilled under vacuum before use. Mass spectra were acquired with a Waters LCT Premier ESI-MS in positive mode using acetone as a solvent. UV-Vis spectra were acquired with a Hewlett-Packard 8453 UV-Visible spectrophotometer equipped with a 250 nm cutoff filter. Fluorescence data was acquired with a Horiba Jobin-Yvon FluoroMax-4 fluorescence spectrophotometer. HPLC performed using a JAI Recycling Preparative HPLC (Model LC-9101) with a JAIGEL-1H preparative column.
The compounds gave fluorescence emissions similar to those of carbostyril. (3-Ph-carbostyril ex: 345 nm, em: 410 nm; II-3 ex: 354 nm, em: 427 nm).
The only scaffold which responded to the addition of acid was one containing a 2-pyridyl substituent, which directly corresponded to protonation of the pyridine. The N—H proton of the NH—P(OPh)=O functionality is fairly acidic, and easily removed via treatment with organic bases such as DBU. […] The fluorophore II-7 gave substitution patterns that were followed for both red-shift and quantum yield optimization of carbostyril fluorophores. Following the guidelines within the scaffold, with placement of electron donating groups in the 6- and 7-positions, and an electron-withdrawing group in the 3-position, yielded a fluorophore with an emission of 505 nm and a quantum yield of 45% in CHCl3.

[2] = Stability of phosphonimidate form toward hydrolysis/heat; conditions: 100° C. reaction conditions
Source text: Disclosed herein is a synthetic approach to assemble the 2-λ^5-phosphaquinoline in one step from easily attainable starting materials. By treatment of a 2-ethynyl aniline (for example, accessible from Sonogashira cross-coupling with commercially available 2-iodoanilines) with triphenylphosphite, the disclosed compounds were synthesized in good to modest yields (Table 1). Typically, upon isolation and purification via hot recrystallization in ambient atmosphere, the phosphaquinoline partially hydrolyzed, yielding the phosphaquinolinone form and releasing phenol. However, the phosphonimidate form (A) appeared to be stable at room temperature. This reaction was tolerant to a variety of electron-rich and electron-poor arenes, as well as alkyl functionality attached at the ethynyl.
Except for compounds with a 2-pyridyl substituent, the phosphonimidate compounds tended to hydrolyze when heated in ambient atmosphere to give the phosphonamidate. If the reaction was performed rigorously water-free, and worked up with minimal exposure to ambient atmosphere, the phosphonimidate forms (I) can be isolated for all of the derivatives. […] This and stability of the phosphonimidate toward hydrolysis at room temperature lent credence to increased stability from delocalization within the heterocycle.

[3] = Dimerization in solution
Source text: This corresponded to an energy of 1.5 kcal/mol for each H-bond, which was quite high compared to cis-amides such as pyrrolidone or caprolactam, who experience dimerization constants from 1-5 M^−1 in CHCl3. […] As a result, this dimer deviated from the trends previously reported, where each attractive interaction gave −1.88 kcal/mol of energy to ΔG, and each repulsive secondary interaction gave +0.74 kcal/mol. Following the same schema, the two repulsive secondary interactions in the present dimer yielded only +0.76 kcal/mol of destabilization, about half of what was expected.

[4] = TEA added, in CHCl3 (deprotonated N-H)

Compound	fluorescence emission (em) ([1]; solvent not stated) [nm]	fluorescence excitation (ex) ([1]; solvent not stated) [nm]	fluorescence emission (em) ([1]; CHCl3, neutral form) [nm]	fluorescence emission (em) ([1]; MeCN) [nm]	also measured
O=c1[nH]c2ccccc2cc1-c1ccccc1 [3-Ph-carbostyril, reference compound]	410	345	–	–	–
CCOC(=O)c1ccc(C2=Cc3ccccc3N=P2(Oc2ccccc2)Oc2ccccc2)cc1 [I-2, ethyl 4-(2,2-diphenoxy-2-λ^5-benzo[e][1,2]azaphosphinin-3-yl)benzoate]	–	–	–	–	stability under reaction conditions [2]: quite stable
N#Cc1ccc(C2=Cc3ccccc3NP2(=O)Oc2ccccc2)cc1 (centres unmarked) [II-1, 4-(2-oxido-2-phenoxy-1H-benzo[e][1,2]azaphosphinin-3-yl)benzonitrile]	–	–	430	450	fluorescence excitation (ex) ([1]; CHCl3, neutral form): 345 nm; fluorescence emission (em) [1, 4]: 542 nm; fluorescence excitation (ex) [1, 4]: 360 nm; Stokes shift ([1]; upon treatment with base (TEA) in CHCl3): 180 nm; energy for each H-bond ([3]; from dimerization constant in CDCl3): 1.5 kcal/mol; dimerization constant ([3]; in CDCl3): 133 ± 15 M⁻¹
O=P1(Oc2ccccc2)Nc2ccccc2C=C1c1ccccc1 (centres unmarked) [II-3, 2-phenoxy-3-phenyl-1H-benzo[e][1,2]azaphosphinine 2-oxide]	427	354	–	–	–
COc1ccc(C2=Cc3ccccc3NP2(=O)Oc2ccccc2)cc1 (centres unmarked) [II-4, 3-(4-methoxyphenyl)-2-phenoxy-1H-benzo[e][1,2]azaphosphinine 2-oxide]	–	–	411	411	–
N#Cc1ccc(C2=Cc3cc4c(cc3NP2(=O)Oc2ccccc2)OCO4)cc1 (centres unmarked) [II-7, 4-(2-oxido-2-phenoxy-1H-[1,3]dioxolo[4′,5′:4,5]benzo[1,2-e][1,2]azaphosphinin-3-yl)benzonitrile]	–	–	505	–	quantum yield ([1]; in CHCl3): 45%
